# Source: ChEMBL document CHEMBL1201862, “PubChem BioAssay data set” (2004)
# The source made the active and inactive calls.
# What was measured:
# [1] = molecular target: Polyadenylate-binding protein 1 (Homo sapiens, UniProt P11940); experiment: PABP poly(A) RNA binding inhibitors, primary screen, biochemical, fluorescence polarization, uHTS (AID 2014)
# [2] = molecular target: T1, DNA dC->dU-editing enzyme APOBEC-3A (Homo sapiens, UniProt P31941); experiment: Dose Response confirmation of small molecule APOBEC3A DNA Deaminase Inhibitors via a fluorescence-based single-stranded DNA deaminase assay. [Related pubchem assays (depositor defined):AID493011, AID493024]; type: functional
# [3] = molecular target: T2, DNA dC->dU-editing enzyme APOBEC-3G (Homo sapiens, UniProt Q9HC16); type: functional
# [4] = molecular target: Eukaryotic translation initiation factor 4H (Homo sapiens, UniProt Q15056); experiment: human eIF4H binding inhibitors, primary screen, translation initiation inhibitor project, biochemical, uHTS, fluorescence polarization (AID 2012)
# Hexokinase-1 = molecular target: T3, Hexokinase-1 (Homo sapiens, UniProt P19367); experiment: hexokinase 1 activators, dose response, selectivity assay for HKDC1 activator project, biochemical (AID 504762); type: functional
# T3 sequence (P19367 whole entry): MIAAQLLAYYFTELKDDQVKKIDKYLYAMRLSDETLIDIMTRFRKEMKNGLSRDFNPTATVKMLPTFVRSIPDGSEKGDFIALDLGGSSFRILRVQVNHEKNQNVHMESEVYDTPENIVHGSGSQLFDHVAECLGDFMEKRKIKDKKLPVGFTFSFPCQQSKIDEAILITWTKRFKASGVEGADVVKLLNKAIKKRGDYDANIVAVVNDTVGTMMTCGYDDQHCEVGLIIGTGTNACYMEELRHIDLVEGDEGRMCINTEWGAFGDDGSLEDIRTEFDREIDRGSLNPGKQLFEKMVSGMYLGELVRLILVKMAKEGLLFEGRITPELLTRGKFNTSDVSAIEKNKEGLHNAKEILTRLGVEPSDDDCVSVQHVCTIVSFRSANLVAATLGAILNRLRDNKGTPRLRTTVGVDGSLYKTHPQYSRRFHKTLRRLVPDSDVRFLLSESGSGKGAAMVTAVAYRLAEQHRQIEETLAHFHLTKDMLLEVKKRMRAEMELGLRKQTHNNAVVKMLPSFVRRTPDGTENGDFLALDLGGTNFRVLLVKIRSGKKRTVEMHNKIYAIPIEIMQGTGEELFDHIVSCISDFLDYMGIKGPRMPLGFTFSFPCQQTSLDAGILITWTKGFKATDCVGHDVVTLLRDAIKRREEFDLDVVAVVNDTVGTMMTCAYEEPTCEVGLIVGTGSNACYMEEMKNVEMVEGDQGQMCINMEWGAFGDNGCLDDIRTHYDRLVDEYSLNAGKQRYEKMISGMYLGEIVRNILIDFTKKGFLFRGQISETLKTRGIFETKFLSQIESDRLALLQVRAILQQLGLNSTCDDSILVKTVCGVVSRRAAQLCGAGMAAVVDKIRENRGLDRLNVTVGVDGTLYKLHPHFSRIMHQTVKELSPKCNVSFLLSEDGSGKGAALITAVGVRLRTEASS
# Hexokinase HKDC1 = molecular target: T4, Hexokinase HKDC1 (Homo sapiens, UniProt Q2TB90); experiment: HKDC1 hexokinase inhibitors, dose response, biochemical, W721R variant (AID 504729); type: functional
# T4 sequence (Q2TB90 whole entry): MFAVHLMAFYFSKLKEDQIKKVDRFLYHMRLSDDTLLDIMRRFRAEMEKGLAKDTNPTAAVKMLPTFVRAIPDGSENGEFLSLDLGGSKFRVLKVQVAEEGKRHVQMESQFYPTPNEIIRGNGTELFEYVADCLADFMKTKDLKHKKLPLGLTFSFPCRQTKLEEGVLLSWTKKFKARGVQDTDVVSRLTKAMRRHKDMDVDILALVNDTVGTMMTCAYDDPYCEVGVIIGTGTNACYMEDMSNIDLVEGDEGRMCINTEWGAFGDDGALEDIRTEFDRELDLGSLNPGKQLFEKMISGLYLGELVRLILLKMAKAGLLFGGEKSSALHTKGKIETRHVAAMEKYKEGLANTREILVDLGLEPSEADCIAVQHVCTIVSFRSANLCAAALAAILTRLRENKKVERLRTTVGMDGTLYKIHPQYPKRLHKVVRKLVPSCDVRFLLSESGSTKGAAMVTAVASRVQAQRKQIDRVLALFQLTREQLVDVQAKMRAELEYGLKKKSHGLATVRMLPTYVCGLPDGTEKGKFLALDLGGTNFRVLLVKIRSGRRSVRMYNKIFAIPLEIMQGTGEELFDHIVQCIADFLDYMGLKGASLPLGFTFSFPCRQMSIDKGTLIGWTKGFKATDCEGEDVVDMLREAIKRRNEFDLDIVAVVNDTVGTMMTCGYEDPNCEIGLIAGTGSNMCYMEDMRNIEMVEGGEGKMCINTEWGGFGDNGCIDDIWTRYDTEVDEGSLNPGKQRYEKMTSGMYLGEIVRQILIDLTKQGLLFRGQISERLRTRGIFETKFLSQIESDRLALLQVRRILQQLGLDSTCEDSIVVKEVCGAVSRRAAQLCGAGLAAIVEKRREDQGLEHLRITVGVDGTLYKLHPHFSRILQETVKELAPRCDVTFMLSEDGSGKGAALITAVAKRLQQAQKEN
# cells [5] = type: functional, cell-based
# cells [6] = type: functional
# Nonstructural protein 1 = Nonstructural protein 1 (Influenza A virus, UniProt Q194T2); type: functional, Influenza A virus (A/California/07/2009(H1N1))
# [7] = THP-1 cell cytotoxicity, dose response, cytotoxicity control for non-replicating M. tuberculosis project (AID 489025); type: functional
# cells [8] = type: functional, cell-based; remark: listed apart in the source
# [9] = HepG2 cell cytotoxicity, dose response, cytotoxicity control for non-replicating M. tuberculosis project (AID 489018); type: functional; conditions: Mycobacterium tuberculosis
# [10] = Vero E6 cell cytotoxicity, dose response, cytotoxicity control for non-replicating M. tuberculosis project, secondary assay (AID 492998); type: functional, VeroE6; conditions: Vero C1008
# [11] = microbe, parasite or virus in culture; type: functional; conditions: Mycobacterium tuberculosis
# [12] = molecular target: Eukaryotic translation initiation factor 4E (Mus musculus, UniProt P63073); experiment: eIF4E–eIF4G protein interaction inhibitors, dose response, biochemical, TR-FRET (AID 855); type: functional;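 further: potency for disrupting eIF4E binding to eIF4GI seen as loss of FRET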
# [13] = molecular target: T1, DNA dC->dU-editing enzyme APOBEC-3A; experiment: APOBEC3A DNA deaminase inhibitors, dose response, biochemical (AID 504722); type: functional
# Large T antigen = Large T antigen (Simian virus 40, UniProt P03070); type: functional, Betapolyomavirus macacae;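 further: Confirmatory-stage PubChem screen for compounds that inhibit SV40 T antigen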
# [14] = molecular target: T5, Voltage-gated N-type calcium channel alpha-1B subunit/Amyloid beta A4 precursor protein-binding family A member 1 (Homo sapiens, UniProt Q00975+Q02410); type: protein assay
# [15] = molecular target: T5, Voltage-gated N-type calcium channel alpha-1B subunit/Amyloid beta A4 precursor protein-binding family A member 1; type: protein assay; remark: listed apart in the source
# [16] = molecular target: T6, Ubiquitin-conjugating enzyme E2 N (Homo sapiens, UniProt P61088); type: functional
# T6 sequence (P61088 whole entry): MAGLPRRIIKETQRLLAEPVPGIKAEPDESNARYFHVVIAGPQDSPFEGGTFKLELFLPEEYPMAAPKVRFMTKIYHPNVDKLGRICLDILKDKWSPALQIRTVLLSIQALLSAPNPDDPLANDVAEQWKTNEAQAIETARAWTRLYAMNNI
# [17] = molecular target: T7, Rac GTPase-activating protein 1 (Homo sapiens, UniProt Q9H0H5); experiment: MgcRacGAP GTPase-activating activity inhibitors, confirmation, biochemical, ADP Hunter fluorescence, primary and confirmatory (AID 624330); type: functional
# T7 sequence (Q9H0H5 whole entry): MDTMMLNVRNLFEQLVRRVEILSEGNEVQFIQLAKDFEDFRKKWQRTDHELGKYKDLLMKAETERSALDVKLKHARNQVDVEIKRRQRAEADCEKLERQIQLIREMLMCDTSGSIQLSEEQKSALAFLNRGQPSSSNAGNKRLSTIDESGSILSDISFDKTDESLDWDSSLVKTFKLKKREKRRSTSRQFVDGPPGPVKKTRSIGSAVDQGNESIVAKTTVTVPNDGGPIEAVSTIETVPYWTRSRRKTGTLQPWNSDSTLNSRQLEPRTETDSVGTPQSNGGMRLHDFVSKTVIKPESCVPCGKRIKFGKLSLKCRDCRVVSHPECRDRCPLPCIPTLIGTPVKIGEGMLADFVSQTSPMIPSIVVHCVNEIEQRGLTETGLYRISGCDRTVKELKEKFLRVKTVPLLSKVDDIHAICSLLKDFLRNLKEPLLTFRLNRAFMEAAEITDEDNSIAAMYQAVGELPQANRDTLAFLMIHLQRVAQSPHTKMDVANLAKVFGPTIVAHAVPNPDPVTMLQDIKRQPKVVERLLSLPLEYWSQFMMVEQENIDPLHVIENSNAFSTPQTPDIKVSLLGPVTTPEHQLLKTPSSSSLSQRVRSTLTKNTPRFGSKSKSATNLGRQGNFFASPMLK
# Bcl-2-related protein A1 = Bcl-2-related protein A1 (Mus musculus, UniProt Q07440); type: functional;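 further: confirmatory dose–response counterscreen on Bfl-1, used to check hits from a UBC13 polyubiquitin inhibitor campaign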
# [18] = molecular target: T6, Ubiquitin-conjugating enzyme E2 N; type: functional; remark: listed apart in the source
# [19] = molecular target: T8, Runt-related transcription factor 1/Core-binding factor subunit beta (Homo sapiens, UniProt Q01196+Q13951); experiment: inhibitors of RUNX1 Runt–CBFb-SMMHC binding, primary screen, biochemical, FRET, Cerulean-Runt, Venus-CBFb-SMMHC, uHTS (AID 1434); type: protein assay;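 further: partner is the CBFb-SMMHC leukemia fusion protein rather than wild-type CBFb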
# [20] = molecular target: T9, Corticotropin-releasing factor receptor 2/Corticotropin-releasing factor-binding protein (Homo sapiens, UniProt P24387+Q13324); experiment: activators of CRF receptor 2 with binding protein – uHTS hits, confirmation (AID 602473); type: functional; conditions: read-out: EC50_Mean
# T9 sequence (Q13324 whole entry): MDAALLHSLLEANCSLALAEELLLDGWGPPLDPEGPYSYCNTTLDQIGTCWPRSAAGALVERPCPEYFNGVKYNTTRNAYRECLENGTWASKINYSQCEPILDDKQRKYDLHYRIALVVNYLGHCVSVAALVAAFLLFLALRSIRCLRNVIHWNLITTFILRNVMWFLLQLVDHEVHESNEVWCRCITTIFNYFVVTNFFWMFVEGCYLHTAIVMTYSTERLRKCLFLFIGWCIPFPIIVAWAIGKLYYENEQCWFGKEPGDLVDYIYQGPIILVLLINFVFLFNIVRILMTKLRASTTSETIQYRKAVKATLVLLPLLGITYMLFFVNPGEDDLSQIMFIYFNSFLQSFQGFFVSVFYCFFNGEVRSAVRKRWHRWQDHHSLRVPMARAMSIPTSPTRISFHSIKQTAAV
# T9 sequence (P24387 whole entry): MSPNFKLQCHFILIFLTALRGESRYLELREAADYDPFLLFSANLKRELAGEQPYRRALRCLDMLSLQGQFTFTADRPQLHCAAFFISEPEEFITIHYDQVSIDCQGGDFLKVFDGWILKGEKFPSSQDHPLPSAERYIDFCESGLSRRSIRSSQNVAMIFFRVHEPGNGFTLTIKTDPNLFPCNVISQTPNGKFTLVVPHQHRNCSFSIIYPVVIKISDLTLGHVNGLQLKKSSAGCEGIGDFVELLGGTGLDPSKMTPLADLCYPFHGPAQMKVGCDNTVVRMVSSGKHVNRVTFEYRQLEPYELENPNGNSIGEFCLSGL
# Estrogen receptor beta = Estrogen receptor beta (Homo sapiens, UniProt Q92731);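 further: recombinant ER-beta bound to coactivator SRC1 peptide in presence of estradiol agonist; inhibitors block coactivator peptide binding and lower the FRET signal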
# [21] = molecular target: T8, Runt-related transcription factor 1/Core-binding factor subunit beta; experiment: inhibitors of RUNX1 Runt–CBFb-SMMHC binding, biochemical, TR-FRET (AID 1438); type: protein assay
# [22] = molecular target: T2, DNA dC->dU-editing enzyme APOBEC-3G; experiment: Dose Response confirmation of small molecule APOBEC3G DNA Deaminase Inhibitors via a fluorescence-based single-stranded DNA deaminase assay. [Related pubchem assays (depositor defined):AID493012, AID493028]; type: functional
# T2 sequence (Q9HC16 whole entry): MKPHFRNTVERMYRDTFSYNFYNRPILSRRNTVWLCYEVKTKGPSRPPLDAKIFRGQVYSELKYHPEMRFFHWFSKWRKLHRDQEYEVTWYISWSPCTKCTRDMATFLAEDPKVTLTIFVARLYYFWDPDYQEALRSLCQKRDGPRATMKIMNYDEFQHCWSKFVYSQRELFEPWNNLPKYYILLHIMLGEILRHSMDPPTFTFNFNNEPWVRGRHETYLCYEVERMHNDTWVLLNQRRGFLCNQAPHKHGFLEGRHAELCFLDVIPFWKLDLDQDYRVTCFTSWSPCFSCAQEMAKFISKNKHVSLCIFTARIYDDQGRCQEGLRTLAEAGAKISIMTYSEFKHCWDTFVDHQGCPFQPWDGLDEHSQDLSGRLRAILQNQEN
# T1 sequence (P31941 whole entry): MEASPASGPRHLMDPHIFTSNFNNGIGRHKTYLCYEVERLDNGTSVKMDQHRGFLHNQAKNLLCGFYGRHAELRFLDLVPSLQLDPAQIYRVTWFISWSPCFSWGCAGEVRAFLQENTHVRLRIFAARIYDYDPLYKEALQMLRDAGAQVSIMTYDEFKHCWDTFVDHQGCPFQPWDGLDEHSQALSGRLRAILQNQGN
# Bcl-2-related protein A1, sequence (Q07440 whole entry): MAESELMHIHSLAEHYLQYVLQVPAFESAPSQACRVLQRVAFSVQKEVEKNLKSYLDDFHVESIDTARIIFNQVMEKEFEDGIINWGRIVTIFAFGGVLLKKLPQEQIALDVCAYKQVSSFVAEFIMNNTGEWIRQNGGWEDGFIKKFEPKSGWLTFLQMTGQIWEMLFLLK
# T8 sequence (Q01196 whole entry, the tested form may be a part): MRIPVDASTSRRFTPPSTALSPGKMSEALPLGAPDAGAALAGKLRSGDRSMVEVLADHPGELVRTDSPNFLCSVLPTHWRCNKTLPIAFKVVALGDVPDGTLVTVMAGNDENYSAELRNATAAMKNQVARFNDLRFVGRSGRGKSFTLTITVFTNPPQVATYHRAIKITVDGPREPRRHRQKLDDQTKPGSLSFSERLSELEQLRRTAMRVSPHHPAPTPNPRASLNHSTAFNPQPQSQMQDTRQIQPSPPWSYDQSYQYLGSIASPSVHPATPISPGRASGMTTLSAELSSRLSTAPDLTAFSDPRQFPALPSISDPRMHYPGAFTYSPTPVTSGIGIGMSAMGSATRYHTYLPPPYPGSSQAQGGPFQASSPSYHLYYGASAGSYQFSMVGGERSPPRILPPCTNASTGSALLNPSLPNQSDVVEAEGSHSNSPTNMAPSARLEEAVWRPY
# T8 sequence (Q13951 whole entry, the tested form may be a part): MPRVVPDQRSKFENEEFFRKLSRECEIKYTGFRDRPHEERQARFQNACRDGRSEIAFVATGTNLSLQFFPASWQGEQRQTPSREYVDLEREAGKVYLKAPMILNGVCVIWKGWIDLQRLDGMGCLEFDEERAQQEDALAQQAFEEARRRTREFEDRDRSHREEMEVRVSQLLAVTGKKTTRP
# T5 sequence (Q00975 whole entry): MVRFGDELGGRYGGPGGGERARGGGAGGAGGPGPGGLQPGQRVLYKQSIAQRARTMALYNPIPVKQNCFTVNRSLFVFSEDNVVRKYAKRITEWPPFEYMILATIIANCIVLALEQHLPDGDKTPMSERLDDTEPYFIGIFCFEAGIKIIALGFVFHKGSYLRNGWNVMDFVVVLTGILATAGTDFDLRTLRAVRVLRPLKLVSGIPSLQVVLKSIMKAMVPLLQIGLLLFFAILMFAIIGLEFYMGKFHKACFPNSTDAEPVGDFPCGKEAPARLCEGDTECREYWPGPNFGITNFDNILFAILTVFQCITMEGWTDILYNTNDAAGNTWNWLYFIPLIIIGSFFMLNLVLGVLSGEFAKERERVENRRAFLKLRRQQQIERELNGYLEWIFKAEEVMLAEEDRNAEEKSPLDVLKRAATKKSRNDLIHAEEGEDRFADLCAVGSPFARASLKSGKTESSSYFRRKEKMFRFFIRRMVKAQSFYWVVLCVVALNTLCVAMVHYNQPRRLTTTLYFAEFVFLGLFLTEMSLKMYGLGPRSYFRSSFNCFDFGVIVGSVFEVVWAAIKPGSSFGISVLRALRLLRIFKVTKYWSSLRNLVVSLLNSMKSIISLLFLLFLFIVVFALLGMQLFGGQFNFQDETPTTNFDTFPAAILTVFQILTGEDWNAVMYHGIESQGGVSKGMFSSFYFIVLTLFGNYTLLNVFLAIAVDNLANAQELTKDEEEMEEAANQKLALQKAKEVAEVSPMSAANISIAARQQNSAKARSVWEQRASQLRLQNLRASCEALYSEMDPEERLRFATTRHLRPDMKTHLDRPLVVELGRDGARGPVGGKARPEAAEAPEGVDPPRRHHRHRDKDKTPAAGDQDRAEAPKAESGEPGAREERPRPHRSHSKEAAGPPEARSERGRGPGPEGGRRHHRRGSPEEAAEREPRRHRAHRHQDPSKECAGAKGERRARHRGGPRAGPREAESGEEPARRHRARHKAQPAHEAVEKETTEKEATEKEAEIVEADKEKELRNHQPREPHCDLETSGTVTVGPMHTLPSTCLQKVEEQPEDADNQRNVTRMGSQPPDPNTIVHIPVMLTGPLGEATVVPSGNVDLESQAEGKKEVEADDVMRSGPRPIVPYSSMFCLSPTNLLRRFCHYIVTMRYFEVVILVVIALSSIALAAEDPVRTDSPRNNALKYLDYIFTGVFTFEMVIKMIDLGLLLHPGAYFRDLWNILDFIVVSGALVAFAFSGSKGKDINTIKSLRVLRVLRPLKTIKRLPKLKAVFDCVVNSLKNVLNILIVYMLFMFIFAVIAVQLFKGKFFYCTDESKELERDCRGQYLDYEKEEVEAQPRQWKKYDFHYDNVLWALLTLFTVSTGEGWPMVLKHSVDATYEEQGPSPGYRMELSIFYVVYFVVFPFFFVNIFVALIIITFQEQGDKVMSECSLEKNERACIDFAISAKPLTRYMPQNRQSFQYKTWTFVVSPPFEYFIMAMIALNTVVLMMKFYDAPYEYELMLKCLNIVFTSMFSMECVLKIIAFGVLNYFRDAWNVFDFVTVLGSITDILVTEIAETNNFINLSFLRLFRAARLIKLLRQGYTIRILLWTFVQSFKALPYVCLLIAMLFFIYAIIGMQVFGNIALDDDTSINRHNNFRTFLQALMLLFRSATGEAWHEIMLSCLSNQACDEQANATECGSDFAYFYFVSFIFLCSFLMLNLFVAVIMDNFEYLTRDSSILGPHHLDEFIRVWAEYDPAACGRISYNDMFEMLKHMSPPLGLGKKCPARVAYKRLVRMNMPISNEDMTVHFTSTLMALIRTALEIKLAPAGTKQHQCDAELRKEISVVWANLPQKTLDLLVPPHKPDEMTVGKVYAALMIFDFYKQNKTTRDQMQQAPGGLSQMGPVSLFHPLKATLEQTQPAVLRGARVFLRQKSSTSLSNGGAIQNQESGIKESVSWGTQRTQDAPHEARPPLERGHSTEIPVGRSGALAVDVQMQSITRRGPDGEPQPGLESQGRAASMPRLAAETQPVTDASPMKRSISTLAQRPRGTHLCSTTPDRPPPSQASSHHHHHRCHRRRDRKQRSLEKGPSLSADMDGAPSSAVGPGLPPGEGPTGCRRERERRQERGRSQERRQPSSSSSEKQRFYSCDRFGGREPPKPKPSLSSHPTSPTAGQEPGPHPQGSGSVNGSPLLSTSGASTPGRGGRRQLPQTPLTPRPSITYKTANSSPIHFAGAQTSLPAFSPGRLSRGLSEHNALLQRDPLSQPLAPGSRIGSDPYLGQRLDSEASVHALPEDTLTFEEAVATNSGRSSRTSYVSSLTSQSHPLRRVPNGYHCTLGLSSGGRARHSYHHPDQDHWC
# T5 sequence (Q02410 whole entry): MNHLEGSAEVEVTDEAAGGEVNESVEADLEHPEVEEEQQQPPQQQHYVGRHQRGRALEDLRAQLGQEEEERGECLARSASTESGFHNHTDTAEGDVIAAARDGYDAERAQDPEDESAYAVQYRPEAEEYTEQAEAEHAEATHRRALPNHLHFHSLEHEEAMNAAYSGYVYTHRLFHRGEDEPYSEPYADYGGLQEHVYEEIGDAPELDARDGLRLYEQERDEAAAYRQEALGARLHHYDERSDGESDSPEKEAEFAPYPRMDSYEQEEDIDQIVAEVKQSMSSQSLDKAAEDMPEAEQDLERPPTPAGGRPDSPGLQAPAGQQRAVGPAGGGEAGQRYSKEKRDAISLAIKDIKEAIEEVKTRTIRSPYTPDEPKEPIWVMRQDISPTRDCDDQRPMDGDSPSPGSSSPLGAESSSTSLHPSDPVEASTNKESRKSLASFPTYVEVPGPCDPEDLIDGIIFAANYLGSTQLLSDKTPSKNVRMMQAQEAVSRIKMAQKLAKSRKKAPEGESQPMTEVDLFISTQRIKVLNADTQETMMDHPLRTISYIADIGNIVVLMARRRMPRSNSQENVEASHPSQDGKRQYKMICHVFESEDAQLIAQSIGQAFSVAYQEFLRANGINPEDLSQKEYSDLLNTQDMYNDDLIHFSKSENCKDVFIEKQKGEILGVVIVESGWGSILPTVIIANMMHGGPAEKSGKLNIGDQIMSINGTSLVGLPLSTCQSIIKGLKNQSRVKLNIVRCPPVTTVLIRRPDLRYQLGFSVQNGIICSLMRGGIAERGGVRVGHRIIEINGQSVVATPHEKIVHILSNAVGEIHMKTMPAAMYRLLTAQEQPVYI
# Nonstructural protein 1, sequence (Q194T2 whole entry): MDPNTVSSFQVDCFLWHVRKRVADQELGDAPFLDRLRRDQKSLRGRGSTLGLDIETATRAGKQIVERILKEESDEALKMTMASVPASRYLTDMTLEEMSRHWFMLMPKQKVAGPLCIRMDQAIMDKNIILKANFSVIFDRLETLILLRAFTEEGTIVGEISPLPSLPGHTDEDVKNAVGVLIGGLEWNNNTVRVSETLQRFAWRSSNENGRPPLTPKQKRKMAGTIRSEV
# Eukaryotic translation initiation factor 4E, sequence (P63073 whole entry): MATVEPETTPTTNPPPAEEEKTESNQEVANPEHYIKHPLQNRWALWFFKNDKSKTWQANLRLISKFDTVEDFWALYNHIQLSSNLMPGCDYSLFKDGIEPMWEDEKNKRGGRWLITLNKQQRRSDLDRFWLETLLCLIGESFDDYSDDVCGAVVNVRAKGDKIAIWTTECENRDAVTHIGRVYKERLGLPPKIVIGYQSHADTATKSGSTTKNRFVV
smiles,measurement,setting,value
COC(=O)C1=C(C)N(Cc2ccccc2)C(NCCCCO)=N[C@H]1CCc1ccccc1,IC50,[1],18.9 µM (active)
same,IC50,[2],3.51 µM (active)
same,IC50,[3],5.42 µM (active)
same,IC50,[4],> 100 µM (inactive)
O=C(c1ccccc1)c1nnc(-c2ccccc2)cc1O,EC50,Hexokinase-1,> 80 µM (inactive)
same,IC50,Hexokinase HKDC1,> 80 µM (inactive)
CNc1nc(-c2ccccn2)nnc1-c1ccccc1,EC50,cells [5],> 350 µM (not active)
same,IC50,cells [6],11.1 µM (active)
same,IC50,Nonstructural protein 1,1.66 µM (active)
same,CC50,[7],19.1 µM (active)
same,EC50,cells [8],12.8 µM (active)
same,CC50,[9],> 20 µM (active)
same,CC50,[10],19.9 µM (active)
same,CC50,[11],13.3 µM (active)
COc1ccc(N2CSC3=C(C#N)C(c4cccs4)CC(=O)N3C2)cc1 (centres undefined),IC50,[12],> 64 µM (inactive)
same,IC50,[13],74.1 µM (active)
same,IC50,Large T antigen,10.7 µM (active)
same,IC50,[14],> 50 µM (inactive)
same,IC50,[15],8.68 µM (active)
C#CCOCCOCCOCCNc1nc(N2CCN(C(=O)[C@H](CCCCN)n3cc([C@@H](N)C(C)CC)nn3)CC2)nc(N2CCN(C(=O)[C@H](CCCCN)n3cc([C@@H](N)CC(C)C)nn3)CC2)n1 (some centres undefined),IC50,[16],7.14 µM (active)
same,IC50,[17],114 µM (active)
same,IC50,Bcl-2-related protein A1,> 20 µM (inactive)
same,IC50,[18],8.4 µM (active)
Cc1cccc(S(=O)(=O)c2c(N)n(Cc3ccco3)c3nc4ccccc4nc23)c1,IC50,[19],> 100 µM (inactive)
same,EC50,[20],> 53 µM (inactive)
same,IC50,Estrogen receptor beta,> 50 µM (not active)
same,IC50,[21],> 100 µM (inactive)
Cc1cc(-c2nnc(S)n2/N=C/C=C/c2ccccc2)[nH]n1,IC50,[13],> 100 µM (inactive)
same,IC50,[22],2.35 µM (active)
COc1cc(/C=N\NC(=O)c2sc(N)nc2C)cc(OC)c1OC,IC50,[16],0.386 µM (active)
same,IC50,Bcl-2-related protein A1,> 20 µM (inactive)
same,IC50,[18],0.477 µM (active)
CC[n+]1cccc(-c2nc3ccccc3s2)c1,IC50,[2],3.65 µM (active)
same,IC50,[3],3.66 µM (active)
